Assay results reported in patent publication US20110008465A1, “SESQUITERPENE FORMULATIONS, KITS AND METHODS OF USE THEREOF” (priority 2007, published 2011).

What was measured:
A-549 (lung cancer) = test: Chou and Talalay combination assay with beta-caryophyllene; assay type: cell-based, human; details: anticancer drug in combination with beta-caryophyllene; Chou and Talalay CI; 48 h
Experimental: (§1) Each solution was prepared fresh and use within 1 hour after preparation.
(§2) Cells were then harvested using trypsine-EDTA. Cells were counted using a hemocytometer and resuspended in DMEM+10% FBS medium.
(§3) Proliferation assay: Increasing concentrations of the anticancer agents and/or beta-caryophyllene were added to 96-well plate (100 μL per well). The final concentration of solvent in the culture medium was maintained below 0.5% (volume/volume) to avoid solvent toxicity.
(§4) The cells were incubated for 48 h at 37° C. and 5% CO2. Cytotoxicity was assessed using the resazurin reduction test (O'Brien et al., 2000). Fluorescence was measured on an automated 96-well Fluoroskan Ascent FI™ plate reader (Labsystems) using excitation and emission wavelengths of 530 nm and 590 nm, respectively. Resazurin was then removed.
(§5) Microplates were frozen at −20° C. overnight. Plates were thawed, a volume of 100 μl of 0.01% SDS in water was added to the wells, the plates were shaken at room temperature for 3 hours and then frozen once more at −20° C. overnight. […] Plates were shaken in the dark (at room temperature) for at least 2 hours, and fluorescence was measured on an automated 96-well Fluoroskan Ascent FI™ plate reader (Labsystems) using excitation and emission wavelengths of 360 nm and 460 nm, respectively.
(§6) Results were analyzed using the Chou and Talalay method (9) and may be interpreted as follow: Cl>1 represents an antagonist effect of beta-caryophyllene with the corresponding anticancer agent; Cl=1 represents an additive effect of beta-caryophyllene with the corresponding anticancer agent; Cl<1 represents a potentiating effect of beta-caryophyllene with the corresponding anticancer agent.

DLD-1 (colon cancer) = test: as above; assay type: cell-based, human; details: anticancer drug in combination with beta-caryophyllene; Chou and Talalay CI; 48 h
Experimental: as §1, §2, §3, §4, §5, §6

MCF-7 (breast cancer) = test: as above; assay type: cell-based, human; details: anticancer drug in combination with beta-caryophyllene; Chou and Talalay CI; 48 h
Experimental: as §1, §2, §3, §4, §5, §6

[1] = test system: MDA-MB-231 (breast cancer); test: as above; assay type: cell-based, human; details: anticancer drug in combination with beta-caryophyllene; Chou and Talalay CI; 48 h
Experimental: as §1, §2, §3, §4, §5, §6

PA-1 (ovary cancer) = test: as above; assay type: cell-based, human; details: anticancer drug in combination with beta-caryophyllene; Chou and Talalay CI; 48 h
Experimental: as §1, §2, §3, §4, §5, §6

PC-3 (prostate cancer) = test: as above; assay type: cell-based, human; details: anticancer drug in combination with beta-caryophyllene; Chou and Talalay CI; 48 h
Experimental: as §1, §2, §3, §4, §5

B16 (murine melanoma) = test: as above; assay type: cell-based; details: anticancer drug in combination with beta-caryophyllene; Chou and Talalay CI; 48 h
Experimental: as §1, §2, §3, §4, §5, §6

[2] = test system: GL-261 (murine glioblastoma); test: as above; assay type: cell-based; details: anticancer drug in combination with beta-caryophyllene; Chou and Talalay CI; 48 h
Experimental: as §1, §2, §3, §4, §5, §6

MEL-2 (human melanoma) = test: as above; assay type: cell-based; details: anticancer drug in combination with beta-caryophyllene; Chou and Talalay CI; 48 h
Experimental: as §1, §2, §3, §4, §5, §6

[3] = test system: U-251 (human glioblastoma); test: as above; assay type: cell-based; details: anticancer drug in combination with beta-caryophyllene; Chou and Talalay CI; 48 h
Experimental: as §1, §2, §3, §4, §5, §6

tumor cell lines = test: Comparative potentiating effect of beta-caryophyllene and Tesmilifene (DPPE) combined with 5 antitumor classes; assay type: cell-based
Experimental: as §1, §2, §3, §4, §5, §6

## O=c1[nH]cc(F)c(=O)[nH]1 [5-fluorouracil, 5-Fluorouracil]
A-549 (lung cancer)
  Potentiating activity A-549: (6) (Antagonist effect: CI > 1)
DLD-1 (colon cancer)
  Potentiating activity DLD-1: (3) (Moderate: 0.5 < CI < 0.8 at IC50)
MCF-7 (breast cancer)
  Potentiating activity MCF-7: (1) (Very High: CI equal or below 1 at IC20 and Cl below 0.6 to IC50)
[1]
  Potentiating activity MDA: (3) (Moderate: 0.5 < CI < 0.8 at IC50)
PA-1 (ovary cancer)
  Potentiating activity PA-1: (2) (High: CI < 0.5 to IC50)
PC-3 (prostate cancer)
  Potentiating activity PC-3: (2) (High: CI < 0.5 to IC50)
B16 (murine melanoma)
  Potentiating activity B16: (1) (Very High: potentiating or additive activity to IC20 and CI < 0.6 to IC50)
[2]
  Potentiating activity GL-261: (3) (Moderate: 0.5 < CI < 0.8 to IC50)
MEL-2 (human melanoma)
  Potentiating activity MEL-2: (1) (Very High: potentiating or additive activity to IC20 and CI < 0.6 to IC50)
[3]
  Potentiating activity U-251: (1) (Very High: potentiating or additive activity to IC20 and CI < 0.6 to IC50)

## N.N.O=C([O-])C1(C(=O)[O-])CCC1.[Pt+2] [Carboplatin, carboplatin]
A-549 (lung cancer)
  Potentiating activity A-549: (1) (Very High: CI equal or below 1 at IC20 and Cl below 0.6 to IC50)
DLD-1 (colon cancer)
  Potentiating activity DLD-1: (3) (Moderate: 0.5 < CI < 0.8 at IC50)
MCF-7 (breast cancer)
  Potentiating activity MCF-7: (1) (Very High: CI equal or below 1 at IC20 and Cl below 0.6 to IC50)
[1]
  Potentiating activity MDA: (3) (Moderate: 0.5 < CI < 0.8 at IC50)
PA-1 (ovary cancer)
  Potentiating activity PA-1: (3) (Moderate: 0.5 < CI < 0.8 to IC50)
PC-3 (prostate cancer)
  Potentiating activity PC-3: (6) (Antagonist effect: CI > 1)
B16 (murine melanoma)
  Potentiating activity B16: (1) (Very High: potentiating or additive activity to IC20 and CI < 0.6 to IC50)
[2]
  Potentiating activity GL-261: (2) (High: CI < 0.5 to IC50)
MEL-2 (human melanoma)
  Potentiating activity MEL-2: (3) (Moderate: 0.5 < CI < 0.8 to IC50)
[3]
  Potentiating activity U-251: (3) (Moderate: 0.5 < CI < 0.8 to IC50)

## O=NN(CCCl)C(=O)NCCCl [Carmustine, carmustine]
A-549 (lung cancer)
  Potentiating activity A-549: (1) (Very High: CI equal or below 1 at IC20 and Cl below 0.6 to IC50)
DLD-1 (colon cancer)
  Potentiating activity DLD-1: (2) (High: CI below 0.5 at IC50)
MCF-7 (breast cancer)
  Potentiating activity MCF-7: (1) (Very High: CI equal or below 1 at IC20 and Cl below 0.6 to IC50)
[1]
  Potentiating activity MDA: (3) (Moderate: 0.5 < CI < 0.8 at IC50)
PA-1 (ovary cancer)
  Potentiating activity PA-1: (1) (Very High: potentiating or additive activity to IC20 and CI < 0.6 to IC50)
PC-3 (prostate cancer)
  Potentiating activity PC-3: (1) (Very High: potentiating or additive activity to IC20 and CI < 0.6 to IC50)
B16 (murine melanoma)
  Potentiating activity B16: (1) (Very High: potentiating or additive activity to IC20 and CI < 0.6 to IC50)
[2]
  Potentiating activity GL-261: (1) (Very High: potentiating or additive activity to IC20 and CI < 0.6 to IC50)
MEL-2 (human melanoma)
  Potentiating activity MEL-2: (1) (Very High: potentiating or additive activity to IC20 and CI < 0.6 to IC50)
[3]
  Potentiating activity U-251: (1) (Very High: potentiating or additive activity to IC20 and CI < 0.6 to IC50)

## O=C(O)CCCc1ccc(N(CCCl)CCCl)cc1 [Chlorambucil, chlorambucil]
A-549 (lung cancer)
  Potentiating activity A-549: (3) (Moderate: 0.5 < CI < 0.8 at IC50)
DLD-1 (colon cancer)
  Potentiating activity DLD-1: (3) (Moderate: 0.5 < CI < 0.8 at IC50)
MCF-7 (breast cancer)
  Potentiating activity MCF-7: (1) (Very High: CI equal or below 1 at IC20 and Cl below 0.6 to IC50)
[1]
  Potentiating activity MDA: (1) (Very High: CI equal or below 1 at IC20 and Cl below 0.6 to IC50)
PA-1 (ovary cancer)
  Potentiating activity PA-1: (3) (Moderate: 0.5 < CI < 0.8 to IC50)
B16 (murine melanoma)
  Potentiating activity B16: (1) (Very High: potentiating or additive activity to IC20 and CI < 0.6 to IC50)
[2]
  Potentiating activity GL-261: (6) (Antagonist effect: CI > 1)
MEL-2 (human melanoma)
  Potentiating activity MEL-2: (1) (Very High: potentiating or additive activity to IC20 and CI < 0.6 to IC50)
[3]
  Potentiating activity U-251: (2) (High: CI < 0.5 to IC50)

## N.N.[Cl][Pt][Cl] [Cisplatine, Cisplatin]
A-549 (lung cancer)
  Potentiating activity A-549: (2) (High: CI below 0.5 at IC50)
DLD-1 (colon cancer)
  Potentiating activity DLD-1: (1) (Very High: CI equal or below 1 at IC20 and Cl below 0.6 to IC50)
MCF-7 (breast cancer)
  Potentiating activity MCF-7: (2) (High: CI below 0.5 at IC50)
[1]
  Potentiating activity MDA: (3) (Moderate: 0.5 < CI < 0.8 at IC50)
PA-1 (ovary cancer)
  Potentiating activity PA-1: (2) (High: CI < 0.5 to IC50)
PC-3 (prostate cancer)
  Potentiating activity PC-3: (6) (Antagonist effect: CI > 1)
B16 (murine melanoma)
  Potentiating activity B16: (1) (Very High: potentiating or additive activity to IC20 and CI < 0.6 to IC50)
[2]
  Potentiating activity GL-261: (6) (Antagonist effect: CI > 1)
MEL-2 (human melanoma)
  Potentiating activity MEL-2: (1) (Very High: potentiating or additive activity to IC20 and CI < 0.6 to IC50)
[3]
  Potentiating activity U-251: (6) (Antagonist effect: CI > 1)

## CCN(CC)CCOc1ccc(Cc2ccccc2)cc1 [DPPE, Tesmilifene]
Tumor cell lines; class (1) Very High
  Alkylating agents %: 25%
  Alkylating agents Total (60): 15
  Antimitotic agents %: 25%
  Antimitotic agents Total (40): 10
  RNA/DNA antimetabolites %: 30%
  RNA/DNA antimetabolites Total (20): 6
  Topoisomerase II inhibitors %: 18%
  Topoisomerase II inhibitors Total (40): 7
  kinase inhibitors %: 30%
  kinase inhibitors Total (20): 6
Tumor cell lines; class (2) High
  Alkylating agents %: 20%
  Alkylating agents Total (60): 12
  Antimitotic agents %: 20%
  Antimitotic agents Total (40): 8
  RNA/DNA antimetabolites %: 15%
  RNA/DNA antimetabolites Total (20): 3
  Topoisomerase II inhibitors %: 13%
  Topoisomerase II inhibitors Total (40): 5
  kinase inhibitors %: 25%
  kinase inhibitors Total (20): 5
Tumor cell lines; class (3) Moderate
  Alkylating agents %: 23%
  Alkylating agents Total (60): 14
  Antimitotic agents %: 30%
  Antimitotic agents Total (40): 12
  RNA/DNA antimetabolites %: 15%
  RNA/DNA antimetabolites Total (20): 3
  Topoisomerase II inhibitors %: 30%
  Topoisomerase II inhibitors Total (40): 12
  kinase inhibitors %: 45%
  kinase inhibitors Total (20): 9
Tumor cell lines; class (4) Weak
  Alkylating agents %: 10%
  Alkylating agents Total (60): 6
  Antimitotic agents %: 15%
  Antimitotic agents Total (40): 6
  RNA/DNA antimetabolites %: 10%
  RNA/DNA antimetabolites Total (20): 2
  Topoisomerase II inhibitors %: 10%
  Topoisomerase II inhibitors Total (40): 4
  kinase inhibitors %: 0%
  kinase inhibitors Total (20): 0
Tumor cell lines; class (5) Additive effect
  Alkylating agents %: 5%
  Alkylating agents Total (60): 3
  Antimitotic agents %: 0%
  Antimitotic agents Total (40): 0
  RNA/DNA antimetabolites %: 0%
  RNA/DNA antimetabolites Total (20): 0
  Topoisomerase II inhibitors %: 5%
  Topoisomerase II inhibitors Total (40): 2
  kinase inhibitors %: 0%
  kinase inhibitors Total (20): 0
Tumor cell lines; class (6) Antagonist effect
  Alkylating agents %: 17%
  Alkylating agents Total (60): 10
  Antimitotic agents %: 10%
  Antimitotic agents Total (40): 4
  RNA/DNA antimetabolites %: 30%
  RNA/DNA antimetabolites Total (20): 6
  Topoisomerase II inhibitors %: 25%
  Topoisomerase II inhibitors Total (40): 10
  kinase inhibitors %: 0%
  kinase inhibitors Total (20): 0
Tumor cell lines; drugs tested at their IC50 values
  drugs exhibiting a potentiating effect when combined: 81%
